Assay results taken from ChEMBL document CHEMBL5321234, “Discovery of Thieno[3,2-d]pyrimidine derivatives as potent and selective inhibitors of ataxia telangiectasia mutated and Rad3 related (ATR) kinase” (Eur J Med Chem, 2023).

Legend:
LoVo [1] = experiment: Antiproliferative activity against human LoVo cells incubated for 72 hrs by CCK-8 assay; format: functional, cell-based
[2] = target: Serine/threonine-protein kinase ATR (Homo sapiens, UniProt Q13535); experiment: Inhibition of ATR (unknown origin)
[3] = AUC (0 to t) in ICR mouse at 1 mg/kg, iv measured upto 24 hrs by LC-MS/MS analysis; format: ADME, organism-based; parameters: dose 1 mg/kg, time < 24 hrs, route iv; settings: in vivo
[4] = AUC (0 to infinity) in ICR mouse at 10 mg/kg, po measured upto 24 hrs by LC-MS/MS analysis; format: ADME, organism-based; parameters: dose 10 mg/kg, time < 24 hrs, route po; settings: in vivo
[5] = Clearance in ICR mouse at 1 mg/kg, iv measured upto 24 hrs by LC-MS/MS analysis; format: ADME, organism-based; settings: ICR, in vivo
[6] = Cmax in ICR mouse at 10 mg/kg, po measured upto 24 hrs by LC-MS/MS analysis; format: ADME, organism-based; parameters: time < 24 hrs, dose 10 mg/kg, route po; settings: in vivo
[7] = MRT (0 to t) in ICR mouse at 10 mg/kg, po measured upto 24 hrs by LC-MS/MS analysis; format: ADME, organism-based; settings: in vivo
[8] = Initial plasma concentration in ICR mouse at 1 mg/kg, iv measured upto 24 hrs by LC-MS/MS analysis; format: ADME, organism-based
[9] = MRT (0 to infinity) in ICR mouse at 10 mg/kg, po measured upto 24 hrs by LC-MS/MS analysis; format: ADME, organism-based; settings: in vivo
[10] = AUC (0 to infinity) in ICR mouse at 1 mg/kg, iv measured upto 24 hrs by LC-MS/MS analysis; format: ADME, organism-based; parameters: dose 1 mg/kg, time < 24 hrs, route iv; settings: in vivo
[11] = MRT (0 to infinity) in ICR mouse at 1 mg/kg, iv measured upto 24 hrs by LC-MS/MS analysis; format: ADME, organism-based; settings: ICR, in vivo
[12] = Oral bioavailability in ICR mouse at 10 mg/kg measured upto 24 hrs by LC-MS/MS analysis; format: ADME, organism-based; settings: in vivo
[13] = Volume of distribution at steady state in ICR mouse at 1 mg/kg, iv measured upto 24 hrs by LC-MS/MS analysis; format: ADME, organism-based; settings: ICR, in vivo, read-out: Vdss
[14] = AUC (0 to t) in ICR mouse at 10 mg/kg, po measured upto 24 hrs by LC-MS/MS analysis; format: ADME, organism-based; parameters: dose 10 mg/kg, time < 24 hrs, route po; settings: in vivo
[15] = Tmax in ICR mouse at 1 mg/kg, iv measured upto 24 hrs by LC-MS/MS analysis; format: ADME, organism-based; settings: in vivo
[16] = MRT (0 to t) in ICR mouse at 1 mg/kg, iv measured upto 24 hrs by LC-MS/MS analysis; format: ADME, organism-based; settings: in vivo
[17] = Half life in ICR mouse at 1 mg/kg, iv measured upto 24 hrs by LC-MS/MS analysis; format: ADME, organism-based; settings: in vivo
[18] = Half life in ICR mouse at 10 mg/kg, po measured upto 24 hrs by LC-MS/MS analysis; format: ADME, organism-based; settings: in vivo
[19] = Tmax in ICR mouse at 10 mg/kg, po measured upto 24 hrs by LC-MS/MS analysis; format: ADME, organism-based; settings: in vivo
[20] = Cmax in ICR mouse at 1 mg/kg, iv measured upto 24 hrs by LC-MS/MS analysis; format: ADME, organism-based; parameters: time < 24 hrs, dose 1 mg/kg, route iv; settings: in vivo
HT-29 = experiment: Antiproliferative activity against human HT-29 cells incubated for 72 hrs by CCK-8 assay; format: functional, cell-based; settings: HT-29, 72 h
LoVo [21] = experiment: Antitumor activity against human LoVo cells xenografted in BALB/c mouse assessed as tumor growth inhibition at 50 mg/kg, po bid 3 days on/4 days off administered for 21 consecutive days relative to control; format: functional; settings: 504 h, time 21 day, read-out: TGI

Sequence of Serine/threonine-protein kinase ATR (Q13535 whole entry): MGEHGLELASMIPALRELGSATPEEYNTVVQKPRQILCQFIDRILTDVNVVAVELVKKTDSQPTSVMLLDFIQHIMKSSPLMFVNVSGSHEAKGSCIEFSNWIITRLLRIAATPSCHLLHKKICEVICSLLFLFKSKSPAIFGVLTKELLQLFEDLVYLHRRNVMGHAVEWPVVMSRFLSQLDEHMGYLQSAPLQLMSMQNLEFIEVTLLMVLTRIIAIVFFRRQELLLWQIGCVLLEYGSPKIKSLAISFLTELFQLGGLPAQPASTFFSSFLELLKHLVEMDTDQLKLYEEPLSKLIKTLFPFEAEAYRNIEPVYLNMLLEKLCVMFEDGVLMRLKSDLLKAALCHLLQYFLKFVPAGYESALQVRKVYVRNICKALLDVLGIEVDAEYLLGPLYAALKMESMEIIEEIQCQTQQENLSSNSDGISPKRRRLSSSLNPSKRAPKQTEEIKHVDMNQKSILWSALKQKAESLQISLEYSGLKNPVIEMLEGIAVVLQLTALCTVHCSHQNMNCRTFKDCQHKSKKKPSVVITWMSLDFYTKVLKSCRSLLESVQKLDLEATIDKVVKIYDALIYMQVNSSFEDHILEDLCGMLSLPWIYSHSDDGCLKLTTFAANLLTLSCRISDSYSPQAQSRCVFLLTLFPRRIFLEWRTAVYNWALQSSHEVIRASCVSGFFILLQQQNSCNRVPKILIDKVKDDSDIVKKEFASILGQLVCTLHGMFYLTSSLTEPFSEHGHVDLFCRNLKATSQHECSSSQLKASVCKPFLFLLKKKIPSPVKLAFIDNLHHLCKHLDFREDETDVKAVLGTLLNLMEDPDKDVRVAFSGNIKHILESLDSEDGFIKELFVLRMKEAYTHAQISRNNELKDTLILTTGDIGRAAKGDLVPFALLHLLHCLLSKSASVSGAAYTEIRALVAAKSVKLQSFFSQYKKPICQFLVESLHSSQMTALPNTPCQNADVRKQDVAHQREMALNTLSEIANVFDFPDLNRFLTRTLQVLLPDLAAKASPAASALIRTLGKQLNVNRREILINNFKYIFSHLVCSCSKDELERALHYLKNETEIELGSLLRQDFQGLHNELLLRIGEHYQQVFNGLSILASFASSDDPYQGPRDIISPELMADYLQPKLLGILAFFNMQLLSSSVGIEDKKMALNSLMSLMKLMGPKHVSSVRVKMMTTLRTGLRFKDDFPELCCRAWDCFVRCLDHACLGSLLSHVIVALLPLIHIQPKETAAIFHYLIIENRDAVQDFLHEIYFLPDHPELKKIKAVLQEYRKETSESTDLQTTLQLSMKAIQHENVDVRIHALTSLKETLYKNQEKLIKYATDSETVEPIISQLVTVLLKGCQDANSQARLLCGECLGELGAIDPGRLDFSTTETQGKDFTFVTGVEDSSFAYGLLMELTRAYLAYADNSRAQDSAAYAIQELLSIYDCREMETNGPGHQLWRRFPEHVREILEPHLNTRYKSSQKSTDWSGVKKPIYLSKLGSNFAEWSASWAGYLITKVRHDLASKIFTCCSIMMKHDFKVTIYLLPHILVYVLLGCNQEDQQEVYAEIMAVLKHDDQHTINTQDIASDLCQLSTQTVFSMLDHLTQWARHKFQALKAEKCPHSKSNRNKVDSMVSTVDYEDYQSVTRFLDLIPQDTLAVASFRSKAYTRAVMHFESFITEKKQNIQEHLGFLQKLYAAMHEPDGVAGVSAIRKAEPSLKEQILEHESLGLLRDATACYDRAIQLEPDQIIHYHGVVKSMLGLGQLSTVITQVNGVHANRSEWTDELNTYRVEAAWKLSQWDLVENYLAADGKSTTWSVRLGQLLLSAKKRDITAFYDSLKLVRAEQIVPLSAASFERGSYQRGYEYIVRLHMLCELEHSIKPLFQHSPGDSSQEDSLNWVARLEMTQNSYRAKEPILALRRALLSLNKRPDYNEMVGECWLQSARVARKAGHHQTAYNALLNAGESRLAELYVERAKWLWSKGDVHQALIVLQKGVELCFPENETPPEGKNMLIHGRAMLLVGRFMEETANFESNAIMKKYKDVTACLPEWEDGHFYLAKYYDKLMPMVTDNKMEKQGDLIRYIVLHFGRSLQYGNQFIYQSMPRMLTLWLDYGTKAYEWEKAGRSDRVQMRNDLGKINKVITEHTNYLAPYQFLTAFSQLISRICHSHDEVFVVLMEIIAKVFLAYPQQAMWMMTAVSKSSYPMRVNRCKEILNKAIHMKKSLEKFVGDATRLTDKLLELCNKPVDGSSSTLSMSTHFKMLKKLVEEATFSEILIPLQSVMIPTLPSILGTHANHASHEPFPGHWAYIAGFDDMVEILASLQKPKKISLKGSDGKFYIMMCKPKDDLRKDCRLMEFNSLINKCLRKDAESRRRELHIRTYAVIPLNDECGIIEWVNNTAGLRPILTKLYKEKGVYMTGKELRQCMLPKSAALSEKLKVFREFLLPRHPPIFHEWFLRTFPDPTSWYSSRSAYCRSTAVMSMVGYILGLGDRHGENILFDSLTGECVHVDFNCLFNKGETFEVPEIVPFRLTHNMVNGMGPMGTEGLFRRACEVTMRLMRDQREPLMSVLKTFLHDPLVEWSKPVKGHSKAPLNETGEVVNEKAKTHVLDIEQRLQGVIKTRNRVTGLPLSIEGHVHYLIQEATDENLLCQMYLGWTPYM

## CC(O)c1csc2c(N3CCOC[C@H]3C)nc(-c3ccnc4[nH]ccc34)nc12 (stereo partly specified)
LoVo [1]
  IC50: 694 nM
[2]
  IC50: 19.2 nM

## C[C@@H]1COCCN1c1nc(-n2c(N)nc3ccccc32)nc2c(S(C)(=O)=O)csc12
[3]
  AUC(0-t) at 24 h: 221 ng·h/mL
[4]
  AUC(0-inf): 741 ng·h/mL
[5]
  clearance: 74.9 mL/min/kg
[6]
  Cmax: 994 ng/mL
[7]
  MRT last at 24 h: 1.03 h
LoVo [1]
  IC50: 64 nM
[2]
  IC50: 1 nM
[8]
  C0 at 24 h: 1080 ng/mL
[9]
  MRT inf: 1.09 h
[10]
  AUC(0-inf): 226 ng·h/mL
[11]
  MRT inf: 10.8 min
[12]
  bioavailability: 32.8%
[13]
  Vd: 0.827 L/kg
[14]
  AUC(0-t) at 24 h: 735 ng·h/mL
[15]
  Tmax: 4.8 min
[16]
  MRT last at 24 h: 9.6 min
[17]
  half-life: 7.8 min
[18]
  half-life: 74.4 min
[19]
  Tmax: 15 min
[20]
  Cmax: 698 ng/mL

## C[C@@H]1COCCN1c1nc(-c2ccnc3[nH]ccc23)nc2c(S(C)(=N)=O)csc12 (stereo partly specified)
LoVo [1]
  IC50: 398 nM
[2]
  IC50: 5.4 nM

## C[C@@H]1COCCN1c1nc(-n2c(N)nc3c(F)cccc32)nc2c(S(C)(=O)=O)csc12
LoVo [1]
  IC50: 381 nM
[2]
  IC50: 2 nM

## C[C@@H]1COCCN1c1nc(-c2cc(C(F)(F)F)cc3[nH]ccc23)nc2c(S(C)(=O)=O)csc12
LoVo [1]
  IC50: 527 nM
[2]
  IC50: 2.9 nM

## C[C@@H]1COCCN1c1nc(-n2c(C(F)F)nc3ccccc32)nc2c(S(C)(=O)=O)csc12
LoVo [1]
  IC50: 177 nM
[2]
  IC50: 2.8 nM

## CCP(=O)(CC)c1csc2c(N3CCOC[C@H]3C)nc(-n3c(NC)nc4ccccc43)nc12
LoVo [1]
  IC50: 371 nM
[2]
  IC50: 6.2 nM

## C[C@@H]1COCCN1c1nc(-c2c[nH]c3ccccc23)nc2c(S(C)(=O)=O)csc12
LoVo [1]
  IC50: 437 nM
[2]
  IC50: 5 nM

## C[C@@H]1COCCN1c1nc(-c2cc(Cl)cc3[nH]ccc23)nc2c(S(C)(=O)=O)csc12
LoVo [1]
  IC50: 119 nM
[2]
  IC50: 3.6 nM

## C[C@@H]1COCCN1c1nc(-n2c(=O)[nH]c3ccccc32)nc2c(S(C)(=O)=O)csc12
LoVo [1]
  IC50: > 10000 nM
[2]
  IC50: 123 nM

## CC(=O)Nc1nc2ccccc2n1-c1nc(N2CCOC[C@H]2C)c2scc(S(C)(=O)=O)c2n1
LoVo [1]
  IC50: 125 nM
[2]
  IC50: 13.2 nM

## C[C@@H]1COCCN1c1nc(-n2c(N)nc3ccc(F)cc32)nc2c(S(C)(=O)=O)csc12
LoVo [1]
  IC50: 360 nM
[2]
  IC50: 3.7 nM

## C[C@@H]1COCCN1c1nc(-c2cccc3c2CCN3)nc2c(S(C)(=O)=O)csc12
LoVo [1]
  IC50: 1890 nM
[2]
  IC50: 59.2 nM

## C[C@@H]1COCCN1c1nc(-c2ccnc3[nH]ccc23)nc2c(C(C)(C)O)csc12
LoVo [1]
  IC50: 221 nM
[2]
  IC50: 7.9 nM

## C[C@@H]1COCCN1c1nc(-c2c(F)ncc3[nH]ccc23)nc2c(S(C)(=O)=O)csc12
LoVo [1]
  IC50: 151 nM
[2]
  IC50: 4.7 nM

## C[C@@H]1COCCN1c1nc(-n2c(N(C)C)nc3ccccc32)nc2c(S(C)(=O)=O)csc12
[2]
  IC50: 233 nM

## C[C@@H]1COCCN1c1nc(-n2c(N)nc3cc(F)ccc32)nc2c(S(C)(=O)=O)csc12
LoVo [1]
  IC50: 73 nM
[2]
  IC50: 1.2 nM

## C[C@@H]1COCCN1c1nc(-c2cc(F)cc3[nH]ccc23)nc2c(S(C)(=O)=O)csc12
LoVo [1]
  IC50: 259 nM
[2]
  IC50: 3.1 nM

## Cc1nc2ccccc2n1-c1nc(N2CCOC[C@H]2C)c2scc(S(C)(=O)=O)c2n1
LoVo [1]
  IC50: 635 nM
[2]
  IC50: 3.5 nM

## C[C@@H]1COCCN1c1nc(-c2ccnc3[nH]ccc23)nc2ccsc12
LoVo [1]
  IC50: 3340 nM
[2]
  IC50: 17.8 nM

## CC(=O)c1csc2c(N3CCOC[C@H]3C)nc(-c3ccnc4[nH]ccc34)nc12
LoVo [1]
  IC50: 931 nM
[2]
  IC50: 35.3 nM

## CCc1nc2ccccc2n1-c1nc(N2CCOC[C@H]2C)c2scc(S(C)(=O)=O)c2n1
LoVo [1]
  IC50: 657 nM
[2]
  IC50: 3.8 nM

## CSc1nc2ccccc2n1-c1nc(N2CCOC[C@H]2C)c2scc(S(C)(=O)=O)c2n1
[2]
  IC50: 113 nM

## CNc1nc2ccccc2n1-c1nc(N2CCOC[C@H]2C)c2scc(S(=O)(=O)C3CC3)c2n1
LoVo [1]
  IC50: 107 nM
[2]
  IC50: 2.8 nM

## CNc1nc2ccccc2n1-c1nc(N2CCOC[C@H]2C)c2scc(S(=O)(=O)C(C)C)c2n1
LoVo [1]
  IC50: 224 nM
[2]
  IC50: 5.7 nM

## CNc1nc2ccccc2n1-c1nc(N2CCOC[C@H]2C)c2scc(S(C)(=N)=O)c2n1 (stereo partly specified)
LoVo [1]
  IC50: 117 nM
[2]
  IC50: 5.5 nM

## CNc1nc2ccccc2n1-c1nc(N2CCOC[C@H]2C)c2scc(SC)c2n1
LoVo [1]
  IC50: 1500 nM
[2]
  IC50: 24.2 nM

## C[C@@H]1COCCN1c1nc(-c2cccc3[nH]ccc23)nc2c(S(C)(=O)=O)csc12
LoVo [1]
  IC50: 266 nM
[2]
  IC50: 3.1 nM

## CNc1nc2ccccc2n1-c1nc(N2CCOC[C@H]2C)c2scc([S+](C)[O-])c2n1 (stereo partly specified)
LoVo [1]
  IC50: 264 nM
[2]
  IC50: 8.5 nM

## C[C@@H]1COCCN1c1nc(-c2ccnc3[nH]ccc23)nc2c(S(C)(=O)=O)csc12
LoVo [1]
  IC50: 111 nM
[2]
  IC50: 5.8 nM

## C[C@@H]1COCCN1c1nc(-c2ccnc3[nH]ccc23)nc2c(C(N)=O)csc12
LoVo [1]
  IC50: 370 nM
[2]
  IC50: 31.5 nM

## C[C@@H]1COCCN1c1nc(-c2cccc3[nH]ncc23)nc2c(S(C)(=O)=O)csc12
LoVo [1]
  IC50: 391 nM
[2]
  IC50: 9.6 nM

## CCS(=O)(=O)c1csc2c(N3CCOC[C@H]3C)nc(-n3c(NC)nc4ccccc43)nc12
LoVo [1]
  IC50: 89 nM
[2]
  IC50: 4.5 nM

## CCCS(=O)(=O)c1csc2c(N3CCOC[C@H]3C)nc(-n3c(NC)nc4ccccc43)nc12
LoVo [1]
  IC50: 626 nM
[2]
  IC50: 16.8 nM

## CNc1nc2ccccc2n1-c1nc(N2CCOC[C@H]2C)c2scc(P(C)(C)=O)c2n1
LoVo [1]
  IC50: 113 nM
[2]
  IC50: 6.2 nM

## C[C@@H]1COCCN1c1nc(-n2nnc3ccccc32)nc2c(S(C)(=O)=O)csc12
[2]
  IC50: 47 nM

## C=C(C)c1csc2c(N3CCOC[C@H]3C)nc(-c3ccnc4[nH]ccc34)nc12
[2]
  IC50: 108 nM

## C[C@@H]1COCCN1c1nc(-c2cccc3c2CC(=O)N3)nc2c(S(C)(=O)=O)csc12
[2]
  IC50: 159 nM

## C[C@@H]1COCCN1c1nc(-n2cnc3ccccc32)nc2c(S(C)(=O)=O)csc12
LoVo [1]
  IC50: 648 nM
[2]
  IC50: 2.3 nM

## C[C@@H]1COCCN1c1nc(-c2ccnc3[nH]ccc23)nc2c(C#N)csc12
LoVo [1]
  IC50: 2510 nM
[2]
  IC50: 52.6 nM

## CC(C)n1c(=O)n(C)c2cnc3cc(F)c(-c4ccc(OCCCN5CCCCC5)nc4)cc3c21 [AZD-1390]
HT-29
  IC50: > 10 µM

## C[C@@H]1COCCN1c1cc(-c2ccnn2C)c2ccnc(-c3ccn[nH]3)c2n1 [ELIMUSERTIB]
LoVo [1]
  IC50: 41 nM
LoVo [21]
  inhibition in vivo at 50 mg/kg: 65%
